In ChEMBL document CHEMBL5126562, “Surprising lipophilicity observations identify unexpected conformational effects” (Bioorg Med Chem Lett, 2022):
Converted amounts (≈) assume the structure as drawn.

How the values were obtained:
[1] = Lipophilicity, logD of compound at pH 7.4; assay type: physicochemical; conditions: buffer
[2] = Solubility of compound at pH 7.4; assay type: physicochemical; conditions: buffer

| logD [1] | solubility [2] [µM] | SMILES |
| --- | --- | --- |
| 3.5 | < 0.14 | Cc1nc(Nc2cccc(N3CCCN(C)C3=O)n2)sc1-c1cc2c(c(S(C)(=O)=O)c1)C(=O)N([C@@H](C)C1CC1)C2 |
| 1.8 |  | O=C1CCCN1c1cnc(NCc2c(F)ccc3c2CCO3)c2cn[nH]c(=O)c12 |
| 1.3 |  | O=C1CCCN1c1cnc(NCc2c(F)ccc3c2CCO3)n2cnnc12 |
| 1.4 | 641 (≈ 246 µg/mL) | CN1CCN(c2cnc(NCc3c(F)ccc4c3CCO4)n3cnnc23)C1=O |
| 1.2 | 153 (≈ 60.8 µg/mL) | CN1CCCN(c2cnc(NCc3c(F)ccc4c3CCO4)n3cnnc23)C1=O |
| 1.3 | 351 (≈ 134 µg/mL) | O=C1CCCCN1c1cnc(NCc2c(F)ccc3c2CCO3)n2cnnc12 |
| 1.6 | 387 (≈ 181 µg/mL) | CN1CCN(c2ccc(F)cc2CN2CCCN(c3ccc(N4CCOCC4)cc3)C2=O)CC1 |
| 3.5 | 271 (≈ 101 µg/mL) | CC(=O)N1CCc2cc(-c3cccc4c3CCCC4)cc(N3CCCC3=O)c21 |
| 1.9 | 18 (≈ 7.37 µg/mL) | O=C1CCCCN1c1cnc(NCc2c(F)ccc3c2CCO3)c2cn[nH]c(=O)c12 |
| 1.8 | > 2400 | N#Cc1cccc2ncn(CC(=O)NCc3ccc(C(F)(F)F)nc3N3CCCC3=O)c12 |
| 3.4 | < 0.045 | Cc1nc(Nc2cccc(N3CCN(C)C3=O)n2)sc1-c1cc2c(c(S(C)(=O)=O)c1)C(=O)N([C@@H](C)C1CC1)C2 |
| 1.8 | > 200 | N#Cc1cccc2ncn(CC(=O)NCc3ccc(C(F)(F)F)nc3N3CCCCC3=O)c12 |

More lines, now with the values behind:

| SMILES | logD [1] | solubility [2] [µM] |
| --- | --- | --- |
| COCC(=O)N1CCC(COc2ccc(N3CCCC3=O)cc2)C1 (stereo unspecified) | 0.2 | 271 (≈ 90.1 µg/mL) |
| CS(=O)(=O)c1ccc(CNC(=O)C2CCCN(c3cccc(C(F)(F)F)c3)C2=O)cc1 (stereo unspecified) | 1.5 | 94 (≈ 42.7 µg/mL) |
| Cc1nc(Nc2cccc(N3CCOC3=O)n2)sc1-c1cc2c(c(S(=O)(=O)NC3COC3)c1)C(=O)N([C@@H](C)C1CC1)C2 | > 4 | 0.021 (≈ 0.0128 µg/mL) |
| CC(=O)N1CCc2cc(-c3cccc4c3CCCC4)cc(N3CCCCC3=O)c21 | 3.8 | 259 (≈ 101 µg/mL) |
| O=C1CCCCN1c1cccc(C(=O)N(c2ncccc2Cl)[C@@H]2CCCNC2)c1 | -0.9 | > 973 |
| O=C([C@H]1C[C@@H]1c1cccc(N2CCCCC2=O)c1)N1CCN(C2CCC2)CC1 | 1.7 | 2190 (≈ 837 µg/mL) |
| C[C@]1(CS(=O)(=O)N2CC=C(C#Cc3cccc(N4CCCCC4=O)c3)CC2)NC(=O)NC1=O | 1 | 89 (≈ 41.9 µg/mL) |
| O=C1CCCN1c1cccc(C(=O)N(c2ncccc2Cl)[C@@H]2CCCNC2)c1 | -0.5 | 67 (≈ 26.7 µg/mL) |
| CN1CCN(c2ccc(F)cc2CN2CCN(c3ccc(N4CCOCC4)cc3)C2=O)CC1 | 2.1 | 189 (≈ 85.7 µg/mL) |
| Cc1nc(Nc2cccc(N3CCCCC3=O)n2)sc1-c1cc2c(c(S(=O)(=O)NC3COC3)c1)C(=O)N([C@@H](C)C(F)(F)F)C2 | 3.8 | 3 (≈ 1.95 µg/mL) |
| Cc1nc(Nc2cccc(N3CCCCC3=O)n2)sc1-c1cc2c(c(S(C)(=O)=O)c1)C(=O)N([C@@H](C)C1CC1)C2 | 3.9 | 6.3 (≈ 3.56 µg/mL) |
| Cc1nc(Nc2cccc(N3CCCC3=O)n2)sc1-c1cc2c(c(S(C)(=O)=O)c1)C(=O)N([C@@H](C)C1CC1)C2 [AZD-8154] | 4.4 | 0.054 (≈ 0.0298 µg/mL) |
| COc1ccc(N2CCN(C)CC2)c(CN2CCN(c3ccc(N4CCOCC4)cc3)C2=O)c1 | 1.8 | 456 (≈ 212 µg/mL) |
| CS(=O)(=O)c1ccc(CNC(=O)C2CCN(c3cccc(C(F)(F)F)c3)C2=O)cc1 (stereo unspecified) | 2.1 | 15 (≈ 6.61 µg/mL) |
| Cc1nc(Nc2cccc(N3CCCC3=O)n2)sc1-c1cc2c(c(S(=O)(=O)NC3COC3)c1)C(=O)N([C@@H](C)C(F)(F)F)C2 | > 4 | 0.081 (≈ 0.0516 µg/mL) |
| O=C([C@@H]1C[C@H]1c1cccc(N2CCCCC2=O)c1)N1CCN(C2CCC2)CC1 | 1.6 | > 3000 |
| O=C([C@@H]1C[C@H]1c1cccc(N2CCCC2=O)c1)N1CCN(C2CCC2)CC1 | 2 | > 4140 |
| COCC(=O)N1CCC(COc2ccc(N3CCCCC3=O)cc2)C1 (stereo unspecified) | -0.1 | > 3970 |
| C[C@]1(CS(=O)(=O)N2CC=C(C#Cc3cccc(N4CCCC4=O)c3)CC2)NC(=O)NC1=O | 1.5 | 94 (≈ 42.9 µg/mL) |
| COc1ccc(N2CCN(C)CC2)c(CN2CCCN(c3ccc(N4CCOCC4)cc3)C2=O)c1 | 1.3 | 404 (≈ 194 µg/mL) |
| Cc1nc(Nc2cccc(N3CCCCC3=O)n2)sc1-c1cc2c(c(S(=O)(=O)NC3COC3)c1)C(=O)N([C@@H](C)C1CC1)C2 | 3.6 | 1.8 (≈ 1.12 µg/mL) |
| O=C(C1CC1c1ccc(N2CCCC2=O)cc1)N1CCN(C2CCC2)CC1 (stereo unspecified) | 2 | > 2680 |
